Experimental data from US20190382850A1, “METHOD FOR IDENTIFYING MITOCHONDRIAL DNA IN EXTRACELLULAR VESICLES AND TREATMENT OF MTDNA-RELATED DISORDERS AND CANCER” (Memorial Sloan-Kettering Cancer Center, priority 2017, published 2019).

Columns and labels:
[1] = test system: ER+ tumor-derived cells and cell lines; assay: OXPHOS potential (Seahorse) in HT-treated cancer cells; type: cell-based, human; settings: fulvestrant; FIG. 11c
From the text: (Panel a), Representative bright field images of MCF7 po cells±CAF-EVs (3×10^9/weekly for 40 days). Bar graph of number of MS is also reported at the endpoint of the experiment (40 days). (Panel b), HT led to decreased expression of mRNA involved in protein synthesis and OXPHOS signaling with z score and -log (p-values)- as determined by Ingenuity analysis of microarray data from RNA isolated FIG. 5a (MCF7), single P values are also reported. (Panel c), OXPHOS potential determined as changes of respiration rate under mitochondrial stressors by seahorse technology (oligomycin 1 μM, rotenone 100 nM) in cancer cells isolated from FIG. 5b (MCF7, PT1). […] (Panel e), Mitochondrial Complex I/IV activity quantification as determined by nmol/min/mg of protein in luminal breast cancer cell lines from panel a. […]
Mitochondrial respiration and OXPHOS potential in cells was assessed using Seahorse technology (www.seahorsebio.com)(Qian, W. & Van Houten, B. Alterations in bioenergetics due to changes in mitochondrial DNA copy number. Methods 51, 452-457 (2010)). Oxygen consumption rate (OCR), extracellular acidification rate and glycolytic potential were determined using the Seahorse extracellular flux analyzer (XF-96, XF-24 Seahorse Bioscience). […] Furthermore OXPHOS potential was determined by measuring the area of the progress curve after the addition of glucose and rotenone/oligomycin.

[2] = test system: MCF7 xenografts; assay: Tumor growth (BLI) of MCF7 mammary fat pad xenografts treated with HT; type: in vivo, mice; settings: weekly fulvestrant, FIG. 2a
From the text: (Panel a) Representative tumor growth kinetics (BLI) of GFP+/Luciferase+MCF7 xenografts (n=10) treated with weekly fulvestrant once mammary fat pad tumors were established (after 3 months) which led to a period (4 months) of disease stability on HT (HTS) followed by exponential growth on HT (HTR). Representative H&E images of tumors and primary cultures from unsorted as well as FACS purified cancer cells (GFP+/Epcam+) and murine CAFs (GFP−/Epcam). Scale bar 20 μm. (Panel b) OXPHOS potential in tumor-derived cancer cells (panel a) was measured±HT (fulvestrant, 10 μM) by Seahorse. (Panel c) mtDNA/nDNA (human and murine) level as Fold change (log10scale) in cancer cells and mCAFs isolated from HTS and HTR disease (panel a). (Panel d) Percentage of metastatic lesions isolated by FACS from tumor-bearing mice (n=8/group) expressing murine mtDNA as determined by ND1 qPCR (2 ng of total DNA). Oxygen consumption rates (OCR) in murine-mtDNApos and ctrl HTR cells determined by Seahorse. (Panel e) Murine mitochondrial RNA expression (12 genes: ND1, ND2, COX2, ATP8, ATP6, COX3, ND3, ND4L, ND4, ND5, ND6, CytB) as fold change (logioscale) determined by qRT-PCR in HTR and HTS cells (panel a). […]
All cancer cell lines were engineered to express a GFP positive luciferase expression vector for in vitro and in vivo imaging studies. […] EV-number was determined by Nanosight. […]

C[C@]12CC[C@@H]3c4ccc(O)cc4C[C@@H](CCCCCCCCC[S+]([O-])CCCC(F)(F)C(F)(F)F)[C@H]3[C@@H]1CC[C@@H]2O (some centres unmarked) [fulvestrant]
OXPHOS potential in cells treated with HT [1]: reduced
growth pattern of tumors in tumor-bearing mice treated with HT [2]: no growth for 4 months (HTS) followed by exponential growth (HTR)
